Measurements: ChEMBL document CHEMBL4118156, “Design, synthesis and evaluation of vilazodone-tacrine hybrids as multitarget-directed ligands against depression with cognitive impairment” (Bioorg Med Chem, 2018)

Assays:
in vitro [1] = conditions: PAMPA
Description: Effective permeability of the compound in PBS/ethanol buffer after 12 hrs by PAMPA

Butyrylcholinesterase [2] = biological target: T1, Butyrylcholinesterase (Rattus norvegicus, UniProt Q9JKC1)
Description: (§1) Inhibition of rat serum BChE using butyrylthiocholine iodide as substrate after 20 mins by Ellman's method

[3] = biological target: T2, 5-hydroxytryptamine receptor 1A (Homo sapiens, UniProt P08908)
T2 sequence (P08908 whole entry): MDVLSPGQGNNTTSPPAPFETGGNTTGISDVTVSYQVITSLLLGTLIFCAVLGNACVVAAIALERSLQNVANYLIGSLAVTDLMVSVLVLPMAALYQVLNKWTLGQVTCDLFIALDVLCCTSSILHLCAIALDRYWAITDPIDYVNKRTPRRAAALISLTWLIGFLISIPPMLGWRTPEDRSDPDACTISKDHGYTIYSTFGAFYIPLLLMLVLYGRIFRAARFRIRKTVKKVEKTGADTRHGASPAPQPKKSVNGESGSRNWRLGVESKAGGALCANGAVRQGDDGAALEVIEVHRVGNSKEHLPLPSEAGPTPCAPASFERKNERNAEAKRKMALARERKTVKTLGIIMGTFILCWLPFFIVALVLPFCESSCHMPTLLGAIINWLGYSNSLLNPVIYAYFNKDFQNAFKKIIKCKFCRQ
Description: Agonist activity at human 5-HT1A receptor expressed in HEK293 cells after 60 mins by Eu-cAMP solution based ultra LANCE assay

Acetylcholinesterase = biological target: T3, Acetylcholinesterase (Rattus norvegicus, UniProt P37136); assay: Inhibition of rat cortex AChE using acetylthiocholine iodide as substrate after 20 mins by Ellman's method
T3 sequence (P37136 whole entry): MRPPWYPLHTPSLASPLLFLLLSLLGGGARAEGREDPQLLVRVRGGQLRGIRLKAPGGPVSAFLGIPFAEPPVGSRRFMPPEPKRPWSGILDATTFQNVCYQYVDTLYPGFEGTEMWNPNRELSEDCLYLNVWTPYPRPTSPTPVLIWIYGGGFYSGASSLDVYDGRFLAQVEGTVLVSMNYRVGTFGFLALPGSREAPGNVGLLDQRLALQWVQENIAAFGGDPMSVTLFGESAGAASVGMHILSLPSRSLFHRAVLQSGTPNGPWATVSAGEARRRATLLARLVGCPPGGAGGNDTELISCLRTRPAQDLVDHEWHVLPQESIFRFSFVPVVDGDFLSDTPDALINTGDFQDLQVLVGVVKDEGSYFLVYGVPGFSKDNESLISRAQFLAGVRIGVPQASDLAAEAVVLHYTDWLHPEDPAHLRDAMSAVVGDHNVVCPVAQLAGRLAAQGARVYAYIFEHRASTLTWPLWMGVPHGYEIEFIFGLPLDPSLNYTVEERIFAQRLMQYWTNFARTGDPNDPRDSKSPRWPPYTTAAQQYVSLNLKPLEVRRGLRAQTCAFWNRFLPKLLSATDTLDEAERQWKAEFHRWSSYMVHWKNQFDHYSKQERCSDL

Butyrylcholinesterase [4] = biological target: T1, Butyrylcholinesterase; remark: listed apart in the source
Description: as §1

in vitro [5] = conditions: not told
Description: Effective permeability of the compound in PBS/ethanol buffer

[6] = biological target: Sodium-dependent serotonin transporter (Homo sapiens, UniProt P31645); type: cell-based, HEK293
Chain of Sodium-dependent serotonin transporter (P31645 whole entry): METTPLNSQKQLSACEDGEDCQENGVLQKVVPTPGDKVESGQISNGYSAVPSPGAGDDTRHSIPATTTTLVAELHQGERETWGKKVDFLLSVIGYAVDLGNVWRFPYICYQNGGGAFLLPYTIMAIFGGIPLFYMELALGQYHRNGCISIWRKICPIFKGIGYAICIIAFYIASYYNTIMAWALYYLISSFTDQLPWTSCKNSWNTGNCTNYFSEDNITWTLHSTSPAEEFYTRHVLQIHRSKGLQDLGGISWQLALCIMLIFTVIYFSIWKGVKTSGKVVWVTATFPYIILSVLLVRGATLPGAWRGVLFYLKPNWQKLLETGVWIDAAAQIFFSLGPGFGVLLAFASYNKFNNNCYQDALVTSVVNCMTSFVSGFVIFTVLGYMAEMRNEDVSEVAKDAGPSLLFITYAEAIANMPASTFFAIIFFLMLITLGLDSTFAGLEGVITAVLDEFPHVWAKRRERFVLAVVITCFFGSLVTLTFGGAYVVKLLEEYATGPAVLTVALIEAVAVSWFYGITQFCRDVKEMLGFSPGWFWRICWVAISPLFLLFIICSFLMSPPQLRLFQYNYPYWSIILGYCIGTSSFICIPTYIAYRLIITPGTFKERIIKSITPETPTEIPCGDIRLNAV
Description: Inhibition of SERT (unknown origin) expressed in HEK293 cells assessed as reduction in 5-HT uptake incubated for 30 mins

T1 sequence (Q9JKC1 whole entry): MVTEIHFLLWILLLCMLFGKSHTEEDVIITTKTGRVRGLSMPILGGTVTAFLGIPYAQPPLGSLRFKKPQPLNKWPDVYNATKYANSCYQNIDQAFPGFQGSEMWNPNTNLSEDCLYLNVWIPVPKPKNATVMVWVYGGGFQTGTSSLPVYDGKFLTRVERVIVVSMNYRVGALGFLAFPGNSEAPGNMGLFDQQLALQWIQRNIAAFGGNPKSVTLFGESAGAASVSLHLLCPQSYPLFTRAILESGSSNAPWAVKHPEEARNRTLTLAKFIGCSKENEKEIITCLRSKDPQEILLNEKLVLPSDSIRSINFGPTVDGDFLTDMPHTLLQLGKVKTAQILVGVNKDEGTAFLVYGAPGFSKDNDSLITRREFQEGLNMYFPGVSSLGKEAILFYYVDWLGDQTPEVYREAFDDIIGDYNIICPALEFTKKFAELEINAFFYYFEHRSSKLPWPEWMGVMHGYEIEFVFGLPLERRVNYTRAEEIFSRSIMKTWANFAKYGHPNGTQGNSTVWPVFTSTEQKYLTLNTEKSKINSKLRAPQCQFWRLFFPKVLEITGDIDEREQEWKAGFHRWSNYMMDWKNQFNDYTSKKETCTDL

| Papp (in vitro [5]) | SMILES | Papp at 12 h (in vitro [1]) | IC50 (Butyrylcholinesterase [2]) | EC50 [3] | IC50 (Acetylcholinesterase) | IC50 (Butyrylcholinesterase [4]) | IC50 (Acetylcholinesterase; read-out: IC50) | IC50 [6] |
| --- | --- | --- | --- | --- | --- | --- | --- | --- |
|  | Nc1c2c(nc3cccc(N4CCN(CCCCc5c[nH]c6ccc(Br)cc56)CC4)c13)CCCC2 | 3.05 ×10⁻⁶ cm/s | Nd(Insoluble) | 0.35 nM | Nd(Insoluble) |  |  |  |
|  | N#Cc1ccc2[nH]cc(C(=O)CCCN3CCN(c4cccc5nc6c(c(N)c45)CCCC6)CC3)c2c1 | 1.33 ×10⁻⁶ cm/s |  | 62.4 nM |  | 390 nM | 1360 nM |  |
|  | N#Cc1ccc2[nH]cc(CCCCN3CCN(c4ccc5oc(C(N)=O)cc5c4)CC3)c2c1 [VILAZODONE] |  |  |  |  |  | 21300 nM |  |
| 11 ×10⁻⁶ cm/s | COc1ccc(CCN2CCC(Nc3nc4ccccc4n3Cc3ccc(F)cc3)CC2)cc1 [ASTEMIZOLE] |  |  |  |  |  |  |  |
|  | Nc1c2c(nc3cccc(N4CCN(CCCCc5c[nH]c6ccc(Cl)cc56)CC4)c13)CCCC2 | 2.74 ×10⁻⁶ cm/s | Nd(Insoluble) | 0.75 nM | Nd(Insoluble) |  |  |  |
|  | Nc1c2c(nc3cccc(N4CCN(CCCCc5c[nH]c6ccccc56)CC4)c13)CCCC2 | 3.52 ×10⁻⁶ cm/s |  | 1.2 nM |  | 390 nM | 1440 nM |  |
|  | Nc1c2c(nc3cccc(N4CCN(CCCCc5c[nH]c6ccc(F)cc56)CC4)c13)CCCC2 | 3.76 ×10⁻⁶ cm/s | Nd(Insoluble) | 0.72 nM | Nd(Insoluble) |  |  |  |
|  | N#Cc1ccc2[nH]cc(C(=O)CCCN3CCN(c4ccc5c(N)c6c(nc5c4)CCCC6)CC3)c2c1 | 1.68 ×10⁻⁶ cm/s |  | 567 nM |  | 370 nM | 1980 nM |  |
|  | CC(=O)Nc1c2c(nc3cccc(N4CCN(CCCCc5c[nH]c6ccc(C#N)cc56)CC4)c13)CCCC2 | 1.92 ×10⁻⁶ cm/s |  | 93.4 nM |  | 2920 nM | 5610 nM |  |
|  | COC(=O)c1ccc2[nH]cc(CCCCN3CCN(c4cccc5nc6c(c(N)c45)CCCC6)CC3)c2c1 | 6.22 ×10⁻⁶ cm/s |  | < 0.14 nM |  | 410 nM | 2220 nM | 314 nM |
|  | N#Cc1ccc2[nH]cc(C(=O)CCCN3CCN(c4cccc5c(N)c6c(nc45)CCCC6)CC3)c2c1 | 1.61 ×10⁻⁶ cm/s |  | 35 nM |  | 1850 nM | 3310 nM |  |
|  | N#Cc1ccc2[nH]cc(C(=O)CCCN3CCN(c4ccc5nc6c(c(N)c5c4)CCCC6)CC3)c2c1 | 1.04 ×10⁻⁶ cm/s |  | 1560 nM |  | 250 nM | 2910 nM |  |
|  | N#Cc1ccc2[nH]cc(CCCN3CCN(c4cccc5nc6c(c(N)c45)CCCC6)CC3)c2c1 | 5.46 ×10⁻⁶ cm/s |  | 52 nM |  | 420 nM | 1820 nM |  |
|  | N#Cc1ccc2[nH]cc(CCN3CCN(c4cccc5nc6c(c(N)c45)CCCC6)CC3)c2c1 | 4.48 ×10⁻⁶ cm/s |  | > 10000 nM |  | 1130 nM | 2100 nM |  |
|  | N#Cc1ccc2[nH]cc(CCCCN3CCN(c4cccc5nc6c(c(N)c45)CCCCC6)CC3)c2c1 | 3.97 ×10⁻⁶ cm/s |  | 146 nM |  | 230 nM | 18300 nM |  |
|  | Cc1ccc2[nH]cc(CCCCN3CCN(c4cccc5nc6c(c(N)c45)CCCC6)CC3)c2c1 | 3.64 ×10⁻⁶ cm/s |  | 0.6 nM |  | 360 nM | 1120 nM |  |
|  | N#Cc1ccc2[nH]cc(CCCCN3CCN(c4ccc5nc6c(c(N)c5c4)CCCC6)CC3)c2c1 | 3.55 ×10⁻⁶ cm/s |  | 14.9 nM |  | 640 nM | 10200 nM |  |
|  | N#Cc1ccc2[nH]cc(CCCCN3CCN(c4cccc5nc6c(c(N)c45)CCC6)CC3)c2c1 | 4.38 ×10⁻⁶ cm/s |  | 0.58 nM |  | 100 nM | 2360 nM | 22.1 nM |
|  | N#Cc1ccc2[nH]cc(CCCCN3CCN(c4ccc5c(N)c6c(nc5c4)CCCC6)CC3)c2c1 | 2.99 ×10⁻⁶ cm/s |  | 28.8 nM |  | 250 nM | 5100 nM |  |
|  | N#Cc1ccc2[nH]cc(CCCCN3CCN(c4cccc5nc6c(c(N)c45)CCCC6)CC3)c2c1 | 5.11 ×10⁻⁶ cm/s |  | 0.36 nM |  | 340 nM | 1720 nM | 20.4 nM |
|  | COc1ccc2[nH]cc(CCCCN3CCN(c4cccc5nc6c(c(N)c45)CCCC6)CC3)c2c1 | 4.53 ×10⁻⁶ cm/s |  | < 0.14 nM |  | 400 nM | 1620 nM | 229 nM |
| 0.8 ×10⁻⁶ cm/s | CC1COc2c(N3CCN(C)CC3)c(F)cc3c2N1CC(C(=O)O)C3=O (stereo not drawn) | 0.4 ×10⁻⁶ cm/s |  |  |  |  |  |  |
|  | N#Cc1ccc2[nH]cc(CCCCN3CCN(c4cccc5c(N)c6c(nc45)CCCC6)CC3)c2c1 | 4.43 ×10⁻⁶ cm/s |  | 1.55 nM |  | 310 nM | 2330 nM |  |
